{
  "source": "ChEMBL document CHEMBL1144289",
  "about": "“A convenient one-pot synthesis of asymmetric 1,3,5-triazine-2,4,6-triones and its application towards a novel class of gonadotropin-releasing hormone receptor antagonists” (Bioorg Med Chem Lett, 2005)",
  "data": [
    {"target": "T1, Gonadotropin-releasing hormone receptor (Homo sapiens, UniProt P30968)", "T1 sequence (P30968 whole entry)": "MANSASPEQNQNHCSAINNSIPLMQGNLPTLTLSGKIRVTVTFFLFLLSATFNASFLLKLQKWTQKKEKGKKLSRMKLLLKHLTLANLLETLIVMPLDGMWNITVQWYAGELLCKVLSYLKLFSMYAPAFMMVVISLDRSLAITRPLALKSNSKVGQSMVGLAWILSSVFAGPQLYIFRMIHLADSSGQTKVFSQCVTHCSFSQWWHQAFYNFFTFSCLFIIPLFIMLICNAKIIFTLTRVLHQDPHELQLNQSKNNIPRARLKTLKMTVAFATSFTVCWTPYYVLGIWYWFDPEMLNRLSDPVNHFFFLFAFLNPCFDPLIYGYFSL", "assay": "Inhibitory constant against cloned human Gonadotropin-releasing hormone receptor stably expressed in HEK293 cells was determined", "assay_type": "cell-based", "units": {"Ki": "nM"}, "values": [
      {"smiles": "COc1cccc(-n2c(=O)n(Cc3c(F)cccc3F)c(=O)n(CC(N)c3ccccc3)c2=O)c1", "note": "(centres undefined)", "Ki": 120},
      {"smiles": "NC(Cc1c[nH]c2ccccc12)Cn1c(=O)n(Cc2c(F)cccc2F)c(=O)n(-c2c(F)cccc2F)c1=O", "note": "(centres undefined)", "Ki": 380},
      {"smiles": "COc1cccc(-c2c(C)n(Cc3c(F)cccc3F)c(=O)n(C[C@@H](C)N(C)CCc3ccccn3)c2=O)c1", "Ki": 1.1},
      {"smiles": "COc1cccc(-n2c(=O)n(CCN(C)CCc3ccccn3)c(=O)n(Cc3c(F)cccc3F)c2=O)c1", "Ki": 4200},
      {"smiles": "COc1cccc(-c2c(C)n(CCN(C)CCc3ccccn3)c(=O)n(Cc3c(F)cccc3F)c2=O)c1", "Ki": "> 20000"},
      {"smiles": "COc1cccc(-n2c(=O)n(Cc3c(F)cccc3F)c(=O)n(C[C@H](N)c3ccccc3)c2=O)c1", "Ki": 37},
      {"smiles": "N[C@@H](Cn1c(=O)n(Cc2c(F)cccc2F)c(=O)n(-c2ccc3nsnc3c2)c1=O)c1ccccc1", "Ki": 410},
      {"smiles": "N[C@@H](Cn1c(=O)n(Cc2c(F)cccc2F)c(=O)n(-c2ccccc2F)c1=O)c1ccccc1", "Ki": 89},
      {"smiles": "N[C@@H](Cn1c(=O)n(Cc2c(F)cccc2F)c(=O)n(-c2c(F)cccc2F)c1=O)c1ccccc1", "Ki": 220}
    ]}
  ]
}
